Read-outs that look alike come from different tables or passages of the source.
Columns and labels:
[1] = tested on: cis-platin induced neutropenia; format: in vivo, Male Sprague-Dawley rats
Source text: Male Sprague-Dawley rats were first treated with cis-platin or vehicle saline (control). […] Each test group included 6 rats.
The ANC decreased following cisplatin administration.

[2] = tested on: cyclophosphamide-induced neutropenia; conditions: for ANCs (Mean ± SD): Day −1 (pre-dose baseline), N = 5 rats per group
Procedure: The control sample contained 7.1% Tween 80 (v/v), 25.5% Propylene glycol (v/v), and 67.4% D5W (5% dextrose in water) (v/v). Each test group included 15 rats.
Blood collection was performed for absolute neutrophil counts in blood samples collected at Day −1 (pre-dose), Day 2 (24 h), Day 3 (48 h), Day 10 (9 days) and Day 15 (14 days).
These were expressed as a percentage of the control level on Day 3.

[3] = tested on: doxorubicin induced neutropenia; assay: Example 3: ANC in doxorubicin induced neutropenia; format: in vivo, Male Sprague-Dawley rats; conditions: for ANC level expressed as Percent Naïve Group (% Naïve): doxorubicin 3 mg/kg, plinabulin 7.5 mg/kg in the combination
Procedure: Male Sprague-Dawley rats were first treated with doxorubicin or vehicle saline (control). […] Each test group included 6 rats. The doxorubicin was administered intravenously, and plinabulin was administered through intraperitoneal injection.

[4] = tested on: neutropenia caused by cyclophosphamide; assay: Example 1: neutrophil count after cyclophosphamide, plinabulin or the combination; format: in vivo, male Sprague-Dawley rats; conditions: all rats, Days −1, 2, 3 and 10; FIG. 3
Procedure: Fifteen rats each were placed in 4 treatment groups according to Table 1. The indicated doses were administered through intraperitoneal injection on Day 1 with Administration 2 being given 1 hour following Administration 1.
D5W is 5% dextrose in water for injection. For groups that included administration of plinabulin, plinabulin is first dissolved in the Tween 80-PG mixture and then diluted with D5W.
The animals were randomized based on body weight and assigned to groups. Before the initiation of dosing, any assigned animals considered unsuitable for use in the study were replaced by alternate animals obtained from the same shipment and maintained under the same environmental conditions.
Blood was collected by jugular venipuncture for Day −1 bleeds and terminally via abdominal aorta under anesthesia for Day 2 (5 rats per Group i.e. total 20 rats), Day 3 (5 rats per Group i.e. total 20 rats) and Day 10 (5 rats per Group i.e. total 20 rats). After collection, the samples were tested for total and differential cell counts. Five rats per group were terminated on Days 2, 3, and 10. Animals were anesthetized with isoflurane (1-5%) and ˜1-2.0 mL of blood will be collected via abdominal aorta. After collection, 0.3 mL was transferred to EDTA tubes and analyzed for total and differential cell counts. […]

[5] = tested on: topotecan induced neutropenia; assay: Example 5: ANC in topotecan induced neutropenia; format: in vivo, adult male Sprague-Dawley rats
Procedure: Topotecan (0.25 or 1.0 mg/kg IV) was administered to adult male Sprague-Dawley rats on Days 1, 3 and 5. Topotecan was administered by intravenous infusion over a period of 30 minutes using a syringe infusion pump and sterile disposable syringes at a dose volume of 10 mL/kg.
Plinabulin (3.75 mg/kg, IP) was dosed 1 hour post topotecan following each topotecan dose. Plinabulin (7.5 mg/kg IP) was dosed 1 hour after the topotecan dose (0.25 mg/kg) on Day 1 only.
Blood collection was performed Days −2, 0, 2, 4, 6, 7, 8, 9, 10 for the pilot and Days −2, 0, 2, 3, 4, 5, 6, 7, 8, 10, 15 for the main study. Blood samples collected on day 3 were analyzed for total and differential blood cell counts.

N.N.[Cl][Pt][Cl] [Cisplatin, reference compound]
ANCs ([1]; Day 3 (cisplatin ANC nadir), cisplatin 6.5 mg/kg alone): 0.93 ± 0.28 10^3 Cells/μL | ANCs ([1]; Day −1 (predose), cisplatin 6.5 mg/kg group): 2.03 ± 0.81 10^3 Cells/μL | Day 3 ANCs Expressed as Percent of Baseline (Day −1) ([1]; cisplatin 6.5 mg/kg alone): 45.8%

O=P1(N(CCCl)CCCl)NCCCO1 (centres unmarked) [Cyclophosphamide]
ANCs (Mean ± SD) [2]: 1.68 ± 0.19 10^3 Cells/μL | induction of neutropenia ([2]; single intra-peritoneal injection of cyclophosphamide): induced neutropenia in rats at around 48 h

COc1cccc2c1C(=O)c1c(O)c3c(c(O)c1C2=O)C[C@@](O)(C(=O)CO)C[C@@H]3O[C@H]1C[C@H](N)[C@H](O)[C@H](C)O1 [Doxorubicin]
time after administration at which neutropenia effect of doxorubicin was seen ([3]; ANC as percentage of naïve animals, severity increased until Day 5): ≤ 24 h | ANC level, Mean ([3]; Day 2, doxorubicin 3.0 mg/kg IV alone): 4.37 ± 10^3/μL | ANC level expressed as Percent Naïve Group (% Naïve) ([3]; Day 2): 52.6% | ANC level, Mean ([3]; Day 3, doxorubicin 3.0 mg/kg IV alone): 0.88 ± 10^3/μL | ANC level expressed as Percent Naïve Group (% Naïve) ([3]; Day 3): 50.9% | ANC level, Mean ([3]; Day 4, doxorubicin 3.0 mg/kg IV alone): 1.02 ± 10^3/μL | ANC level expressed as Percent Naïve Group (% Naïve) ([3]; Day 4): 30.8% | ANC level, Mean ([3]; Day 5, doxorubicin 3.0 mg/kg IV alone): 0.65 ± 10^3/μL | ANC level expressed as Percent Naïve Group (% Naïve) ([3]; Day 5): 19.2% | ANC level, Mean ([3]; Day 8, doxorubicin 3.0 mg/kg IV alone): 0.97 ± 10^3/μL | ANC level expressed as Percent Naïve Group (% Naïve) ([3]; Day 8): 32.3% | ANC level, Mean ([3]; Day −1 (pre-dose), doxorubicin 3.0 mg/kg IV group): 1.79 ± 10^3/μL | induction of neutropenia ([3]; doxorubicin 3.0 mg/kg): induced a long-lasting neutropenia | duration of ANC decrease following doxorubicin administration ([3]; doxorubicin 3 mg/kg IV single dose): at least 8 days

CC(C)(C)c1[nH]cnc1/C=c1\[nH]c(=O)/c(=C/c2ccccc2)[nH]c1=O [Plinabulin, (3Z,6Z)-3-Benzylidene-6-{[5-(2-methyl-2-propanyl)-1H-imidazol-4-yl]methylene}-2,5-piperazinedione]
ANC level, Mean ([3]; Day 2, plinabulin 7.5 mg/kg IP alone): 5.24 ± 10^3/μL | ANC level, Mean ([3]; Day 3, plinabulin 7.5 mg/kg IP alone): 1.98 ± 10^3/μL | ANC level, Mean ([3]; Day 4, plinabulin 7.5 mg/kg IP alone): 2.17 ± 10^3/μL | ANC level, Mean ([3]; Day 5, plinabulin 7.5 mg/kg IP alone): 2.13 ± 10^3/μL | ANC level, Mean ([3]; Day 8, plinabulin 7.5 mg/kg IP alone): 3.18 ± 10^3/μL | ANC level, Mean ([3]; Day −1 (pre-dose), plinabulin 7.5 mg/kg IP group): 2.02 ± 10^3/μL | ANC in plinabulin only treated rats vs naïve animals ([3]; plinabulin 7.5 mg/kg IP alone, all time points): not statistically different from naïve animals at any time point | effect of plinabulin on doxorubicin effect (ANC), Days 2 and 3 ([3]; plinabulin 7.5 mg/kg, Days 2 and 3 post dose): significantly diminished the effect of doxorubicin | effect of plinabulin on doxorubicin-induced neutropenia, days 5 and 8 ([3]; plinabulin 7.5 mg/kg, days 5 and 8): ameliorated the doxorubicin-induced neutropenia to a lesser degree | effect of plinabulin on doxorubicin-induced neutropenia ([3]; plinabulin 3.5 and 7.5 mg/kg IP, one hour after doxorubicin): significantly reduced the doxorubicin-induced neutropenia | reduction of neutropenia caused by cyclophosphamide, time course [4]: reduced the neutropenia caused by cyclophosphamide | ANCs (Mean ± SD) [2]: 1.69 ± 0.21 10^3 Cells/μL | ANCs ([1]; Day 3, plinabulin 4.9 mg/kg alone): 2.42 ± 0.73 10^3 Cells/μL | ANCs ([1]; Day 3, plinabulin 7.5 mg/kg alone): 4.55 ± 1.41 10^3 Cells/μL | ANCs ([1]; Day −1 (predose), plinabulin 4.9 mg/kg group): 1.98 ± 0.47 10^3 Cells/μL | ANCs ([1]; Day −1 (predose), plinabulin 7.5 mg/kg group): 2.12 ± 0.25 10^3 Cells/μL | ANC levels vs predose levels, plinabulin one hour post cisplatin ([1]; plinabulin 2.3 mg/kg, 4.9 mg/kg and 7.5 mg/kg one hour post cisplatin, Day 3): not significantly different from the predose levels | Day 3 ANCs Expressed as Percent of Baseline (Day −1) ([1]; plinabulin 4.9 mg/kg alone): 122.2% | change of ANC levels by plinabulin alone ([1]; plinabulin 4.9 mg/kg alone, Day 3 vs predose): did not change ANC levels | Day 3 ANCs Expressed as Percent of Baseline (Day −1) ([1]; plinabulin 7.5 mg/kg alone): 214.6% | effect of plinabulin on topotecan-induced neutropenia ([5]; plinabulin 3.75 and 7.5 mg/kg IP, one hour after topotecan): significantly reduced the topotecan-induced neutropenia

CC[C@@]1(O)C(=O)OCc2c1cc1n(c2=O)Cc2cc3c(CN(C)C)c(O)ccc3nc2-1 [topotecan, reference compound]
induction of neutropenia ([5]; topotecan 1 or 0.25 mg/kg IV on Days 1, 3 and 5, FIGS. 11A, 11B): induced a long-lasting neutropenia

From US11229642B2, “Composition and method for reducing neutropenia” (BeyondSpring Pharmaceuticals, Inc., priority 2016, dated 2022)
